Results published in PMC10060354, “Discovery of a small molecule ligand of FRS2 that inhibits invasion and tumor growth” (Cellular Oncology, 2022).

Assays:
RT-112 [1] = test: CellTiter-Glo 3D cell viability; type: cell-based; conditions: Homo sapiens, RT-112, 48 h
Description: (§1) Cell viability was determined using CellTiter-Glo® 2D or 3D cell viability assays (#G9242, #G9682, Promega). 500 cells/25 µl were seeded in flat bottom (#781,091, Greiner bio-one) or U-low adhesion (#4516, Corning) 384-well plate, 24 h prior to treatment. Increasing concentrations of compounds are deposited on cells using a HP Digital Drug Dispenser with DMSO total volume normalization. After 48 h, the CellTiter-Glo® 2D or 3D reagent was added (volume/volume) following manufacturer’s instructions. Plates were incubated at RT (room temperature) under agitation for 30 min and luminescence representing the number of viable cells was quantified with a Cytation 3 imaging reader (BioTek®). Experiments were performed independently three times with three technical replicas each.

HCT116 = test: CellTiter-Glo 3D cell viability; type: cell-based; conditions: Homo sapiens, HCT-116, full growth medium, 48 h
Description: as §1

M059K = test: CellTiter-Glo 3D cell viability; type: cell-based; conditions: Homo sapiens, full growth medium, 48 h
Description: as §1

DAOY = test: CellTiter-Glo 3D cell viability; type: cell-based; conditions: Homo sapiens, full growth medium, 48 h
Description: as §1

SKOV3 = test: CellTiter-Glo 3D cell viability; type: cell-based; conditions: Homo sapiens, SK-OV-3, full growth medium, 48 h
Description: as §1

AGS = test: CellTiter-Glo 3D cell viability; type: cell-based; conditions: Homo sapiens, full growth medium, 48 h
Description: as §1

DAOY siCTL cells = test: SIA, bFGF-induced collagen I invasion in control siRNA cells; type: cell-based; conditions: Homo sapiens
Description: (§2) 1000—2500 cells/well in 100 μl were seeded in 96 well Corning® Spheroid microplate (CLS4520, Sigma-Aldrich) or in cell-repellent 96 well microplate (650,790, Greiner Bio-one). SIA and analysis was performed as described before. In brief: After spheroid formation (24 – 72 h after seeding), 70 µl medium was removed and replaced with the collagen mixture (2.5 mg/ml Pure Col Collagen I (Advanced Biomatrix)), DMEM 1x (from 10 × stock, Sigma, D2429) and 0.4% Sodium bicarbonate (Sigma, S8761)), resulting in a final collagen concentration of 1.75 mg/ml. Embedded spheroids were stimulated with bFGF (100 ng/ml if not otherwise stated), HGF (30 ng /ml) or EGF (20 ng/ml) and distance of invaded cells quantified 24 – 48 h after embedding. Compounds and BGJ398 were added in Dimethylsulfoxid (DMSO) and corresponding DMSO concentrations were used in control samples.
siFRS2 in DAOY cells: 50,000 cells/well in 2 ml medium were seeded in 6 well plates and incubated at 37 °C, 5% CO2. The following day cells were transfected with 10 nM siRNA (5 nM Silencer Select, 5 nM Stealth RNAi siRNA) using Lipofectamin RNAiMAX Transfection Reagent (13,778,075; Invitrogen) and Opti-MEM® medium (15,392,402; Gibco). After 6 h, the medium was exchanged with fresh complete medium and further processed for the SIA protocol.

RT-112 [2] = test: SIA, collagen I invasion; type: cell-based, human
Description: as §2

SKOV3 flank tumors = test: Anti-tumor activity, SKOV3 flank xenograft model; type: in vivo, mice; conditions: 200 mg/kg PO once per day
Description: SKOV3 model: SKOV3 cells were cultured in McCoy´s 5A (26,600–023, ThermoFisher) media (10%FCS) until P7. Freshly isolated cells (1 × 10^6) with a viability of 98% were subcutaneously transplanted to left flank of 8-week-old female mice in PBS/Matrigel (1:1). […] Tumor diameters were determined by calliper measurements 2 × weekly, body weight (BW) was measured as parameter for tolerability 2 × weekly. For assessing significance of differences between treatments at the individual timepoints, a two-way ANOVA analysis with Turkey’s multiple comparison test was performed.

AGS flank tumors = test: Anti-tumor activity, AGS flank xenograft model; type: in vivo
Description: In vivo mouse models were generated and experiment with SKOV3 and AGS models performed by EPO, experimental pharmacology & oncology Berlin-Buch GMBH (Berlin, Germany). AGS model: AGS cells were cultured in F12-K medium (10%FCS, 1%PS) until P11. […]. Tumor diameters were determined by calliper measurements 2 × weekly, body weight (BW) was measured as parameter for tolerability 2 × weekly.

FRS2 = target: T1, FRS2 (Homo sapiens, UniProt Q8WU20); test: CETSA by IB, cell lysates; type: binding; conditions: DAOY lysates
T1 construct: we used the cellular thermal shift assay (CETSA [36]) in DAOY cells; endogenous in cells; host or cells: DAOY cells (intact cells, or freeze-thaw lysates)
T1 sequence (Q8WU20 whole entry): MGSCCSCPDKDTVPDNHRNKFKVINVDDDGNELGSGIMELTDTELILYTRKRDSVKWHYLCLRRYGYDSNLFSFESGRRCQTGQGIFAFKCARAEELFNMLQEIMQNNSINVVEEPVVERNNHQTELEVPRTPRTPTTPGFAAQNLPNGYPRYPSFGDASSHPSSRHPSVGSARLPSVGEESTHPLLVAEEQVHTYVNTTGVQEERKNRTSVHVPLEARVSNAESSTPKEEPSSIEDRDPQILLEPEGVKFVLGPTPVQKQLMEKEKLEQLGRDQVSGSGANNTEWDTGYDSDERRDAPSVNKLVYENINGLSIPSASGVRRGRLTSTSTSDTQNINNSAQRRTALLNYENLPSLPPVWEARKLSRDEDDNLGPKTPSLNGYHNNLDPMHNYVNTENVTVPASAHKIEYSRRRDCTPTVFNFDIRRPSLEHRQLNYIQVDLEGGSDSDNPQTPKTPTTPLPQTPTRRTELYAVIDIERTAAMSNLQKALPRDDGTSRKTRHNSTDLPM
Description: Four 15 cm dishes with 0.5 × 10^6 DAOY cells per dish were grown in full medium o.n. Medium was then removed, cells washed with PBS, detached using trypsin, collected in regular growth medium, centrifuged (300 g, 25 °C, 5 min), washed with PBS and resuspended in 550 µl ice-cold PBS. Cells were lysed with three freeze–thaw cycles (freeze in liquid N2, thaw in 25 °C heat block, vortex quickly) and lysates were placed in aliquots of 250 µl on ice. Compound or solvent was added to 10 µM final concentration and samples were incubated 20 min at 4 °C under rotation. Ten 20 µl aliquots were dispensed in a pre-cooled PCR plate, which was sealed with aluminum foil and placed on ice until heat treatments. Heat treatment was performed in a gradient PCR machine with the following temperatures 40.5, 43.6, 46.2, 48.8. 51.2, 53.8, 56.4, 58.3, 61.7 and 73.8 °C for three min. Plate with samples was kept at RT for 3 min and then kept on ice until centrifugation for 2 min at 500 × g at RT.
Samples were incubated 1 h at 4 °C, with shaking at 500 rpm. Samples are filtered using a MultiScreenHTS HV-Filterplate (Merck, MSHVN4510). Membrane wells were prewetted with 50 µl PBS and centrifuged at 2000 g, RT, 3 min. The lysates were centrifuged at 2000 g, RT, 3 min and 40 µl of each supernatant was transferred to the filterplate and centrifuged at 500 g at RT for 5 min. […]

[3] = AGS model, 200 mg/kg PO once per day

O=[N+]([O-])c1c(Cl)cc(O)c2c1C1C=CCC1C(c1ccc(Cl)cc1)N2 (stereo not drawn) [Compound 7]
IC50 (RT-112 [1]): 12.3 µM
IC50 (HCT116): 4.56 µM
IC50 (M059K): 15.2 µM
IC50 (DAOY): 6.56 µM
IC50 (SKOV3): 9.46 µM
IC50 (AGS): 3.35 µM
IC50 (DAOY siCTL cells): 3.01 µM
EC50 (RT-112 [2]; Homo sapiens, RT-112): 1.06 µM
basal and ligand-induced collagen I invasion (result in words) (RT-112 [2]; RT-112 (FGFR3-TACC3 fusion)): reduced both basal and ligand-induced collagen I invasion
mice with less than average control tumor growth during treatment (SKOV3 flank tumors): six out of the seven
tumor growth (result in words) (SKOV3 flank tumors): significant reduction in tumor growth between d55 and d80
tolerability in AGS tumor-bearing mice (result in words) (AGS flank tumors; 200 mg/kg PO, treatment interrupted for 7 days at day 72): signs of toxicity
animals with TV reduced at d67 and plateaued between d70 and 77 (AGS flank tumors; [3]): four out of the six
average tumor volume (result in words) (AGS flank tumors; [3]): did not significantly reduce average TV compared to control
ΔTm at 10 µM (FRS2): -4.93 °C
